Assay results reported in patent US8173392B2, “In vivo incorporation of unnatural amino acids” (The Scripps Research Institute, priority 2001, dated 2012).
Positions count from the first letter of the chain named.

How the values were obtained:
[1] = system: valine positions, mutant ValRS; settings: mutant E. coli strain grown in presence of Abu; cited from earlier work
mutant TyrRS (LWJ16) = target: T1, mutant TyrRS (LWJ16) (Methanocaldococcus jannaschii, UniProt Q57834, D158A/E107T/L162P/N268S/Y32Q); test: pyrophosphate-exchange assay (adenylate formation with ATP); assay type: biochemical, M. jannaschii; settings: for Kcat / Km: 37° C., pH7.5
T1 construct: The mutant TyrRS (LWJ16) gene with six histidines at its C-terminus was cloned into plasmid pQE-60; His6 (C); made in house
Description: Kinetics of adenylate formation of O-methyl-L-tyrosine and tyrosine with ATP catalyzed by the mutant TyrRS (LWJ16) were analyzed in vitro using a pyrophosphate-exchange assay. The mutant TyrRS (LWJ16) gene with six histidines at its C-terminus was cloned into plasmid pQE-60 (Qiagen, CA) to afford plasmid pQE-mJYRS. Protein was purified by immobilized metal affinity chromatography according to manufacture's protocol (Qiagen, CA). Pyrophosphate (PPi) exchange was carried out at 37° C. in a reaction mixture containing 100 mM Tris HCl (pH7.5), 10 mM KF, 5 mM MgCl2, 2 mM ATP, 2 mM NaPPi, 0.1 mg/mL bovine serum albumin, approximately 0.01 microCi/mL [32P]NaPPi, and various concentrations of tyrosine or O-methyl-L-tyrosine. Reactions were initiated with the addition of the purified mutant TyrRS (LWJ16), and aliquots were periodically taken and quenched with 0.2 M NaPPi, 7% perchloric acid, and 2% activated charcoal. The charcoal was filtered and washed with 10 mM NaPPi (pH2), then measured by scintillation counting to determine the 32P levels in charcoal-adsorbed ATP. Values of kcat and Km were calculated by direct fitting of the Michaelis-Menten equation using nonlinear regression analysis.

E. coli = test: effect of the amino acid on growth rate of E. coli; assay type: cell-based; settings: 1 mM
Description: Following the two rounds of selection and DNA shuffling, a clone (mutant TyrRS (LWJ16)) was evolved whose survival in chloramphenicol was dependent on the addition of 1 mM O-methyl-L-tyrosine to the growth media. In the absence of O-methyl-L-tyrosine, cells harboring the mutant TyrRS (LWJ16) were not viable on minimal media plates containing 1% glycerol, 0.3 mM leucine (GMML), and 15 micrograms/mL of chloramphenicol. Cells were able to grow on GMML plates with 125 micrograms/mL chloramphenicol in the presence of 1 mM O-methyl-L-tyrosine. Similar results were obtained in liquid GMML.

[2] = system: cells expressing m-acetyl phenylalanine-incorporated DHFR
Description: Cells expressing the “ketone handle”-incorporated DHFR were incubated with fluorescein hydrazide solution. After 36 hours at 4° C. and extensive washes to remove excess fluorescein hydrazide, the labeled DHFR protein was purified and subjected to fluorescence emission tests. As a negative control in parallel, m-methoxy phenylalanine-incorporated DHFR was also purified with the same procedures.

[3] = system: yeast amber suppressor tRNAPheCUA/phenylalanyl-tRNA synthetase pair; settings: cited from earlier work
SjGST homodimer = test: photo-activated crosslinking of SjGST (365 nm, SDS-PAGE); set-up: species or system Schistosoma Japonica; settings: long wavelength UV irradiation, 5 minutes
Description: In vivo incorporation of pBpa into GST. […] This protein is a dimer of two identical subunits which have previously been crosslinked non-specifically using gluteraldehyde. The crystal structure of the dimeric Schistosoma Japonica glutathione-S-transferase (SjGST) (McTigue, M. A., Williams, D. R. & Tainer, J. A. Journal of Molecular Biology 246, 21-27 (1995)) was used to identify two sites to substitute with pBp: residue Phe52, which is buried in the dimer interface of the crystal structure, and residue Tyr198 which is solvent exposed. The codons corresponding to Phe52 or Tyr198 in the gene for a 27 kDa protein Sj GST, were replaced with amber codons. The orthogonal synthetase tRNA pair was then used to site specifically incorporate pBpa into SjGST in E. coli at these sites. Upon irradiation with long wavelength ultraviolet radiation, purified SjGST was converted to a covalently linked homodimer as judged by denaturing SDS PAGE. Approximately 70% of the SjGST present was crosslinked in 5 minutes.
Photo-activated crosslinking. Crosslinking reactions were performed in a 96 well microtitre plate (Nuncsorb) using 100 μL of 10 ng/μL SjGST (in 50 mM NaH2Po4, 300 mM NaCl, 250 mM imidazole) at 4° C. Samples were irradiated at 365 nm using a handheld UV lamp (1 SV, 60 Hz, 0.2 A; Spectronics, NY, USA), for 1 min or 5 min. […]

[4] = system: Asp112TAG codon in the CAT gene; test: in vivo chloramphenicol acetyltransferase assay (suppression of Asp112TAG codon in CAT gene, pYC-J17); assay type: cell-based, E. coli; settings: GMML plates
Description: A positive selection was then applied that is based on suppression of an amber stop codon at a nonessential position (Asp112) in the chloramphenicol acetyltransferase (CAT) gene (M. Pastrnak, T. J. Magliery, P. G. Schultz, Helvetica Chimica Acta. 83, 2277-86 (2000)). Cells were grown in media containing the unnatural amino acid and selected for their survival in the presence of various concentration of chloramphenicol. If a mutant TyrRS charges the orthogonal mtRNACUA^Tyr with any amino acid, either natural or unnatural, the cell produces CAT and survives.
The gene encoding mtRNACUA^Tyr under the control of the lpp promoter and rrnC terminator was inserted into plasmid pACMD112TAG (a pACYC184 plasmid with a TAG stop codon replacing Asp112 in its CAT gene (M. Pastrnak, T. J. Magliery, P. G. Schultz, Helvetica Chimica Acta. 83, 2277-86 (2000))) to afford plasmid pYC-J17. Supercoiled DNA encoding the TyrRS library was transformed into E. coli DH10B competent cells containing pYC-J17 to yield a library of size greater than 3×10^9 cfu, ensuring complete coverage of the original library. Cells were then plated on minimal media plates containing 1% glycerol and 0.3 mM leucine (GMML) with 17 micrograms/mL tetracycline(Tet), 25 micrograms/mL kanamycin (Kan), 50 micrograms/mL of chloramphenicol (Cm), and 1 mM unnatural amino acid. […]

[5] = system: amber codons in T7 RNA polymerase gene driving GFPuv; test: fluorimetric analysis, T7 RNA polymerase/GFPuv reporter (pREP/YC-JYCUA); assay type: cell-based, E. coli; settings: presence versus absence of OAT
Description: Construction of a multipurpose reporter plasmid. In order to construct a multipurpose plasmid to be used both for selecting and screening variants of a M. jannaschii TyrRS, plasmid pREP(10) was combined with plasmid pYC-J17 (Wang, L, Brock, A., Herberich, B. & Schultz, P. G., Science, 2001, 292, 498-500) to obtain pREP/YC-JYCUA (FIG. 7b). Plasmid pREP/YC-JYCUA was assayed for function with a compatible plasmid expressing a variant of M. jannaschii TyrRS (pBK-mJYRS; Wang, L, Brock, A., Herberich, B. & Schultz, P. G., Science, 2001, 292, 498-500) selective for incorporating O-Methyl-Tyrosine (OMY).
As described above, the T7 RNA polymerase/GFP system can be used to quantitatively compare the activities of synthetase variants. […] The fluorescence enhancement for cells grown in the presence versus the absence of the unnatural amino acid is thus about 6-fold higher for cells expressing OAT-RS (1) from selection and screening than for cells expressing the OAT-RS clone derived from positive/negative selection using barnase. […] However, the fluorescence enhancement for cells grown in the presence versus the absence of an unnatural amino acid is expected to represent a lower limit for the fidelity of unnatural amino acid incorporation, as competition of unnatural amino acids for being bound by an evolved synthetase variant would reduce binding of natural amino acids. […]

CCC(N)C(=O)O (centres unmarked) [Abu, aminobutyrate]
valines replaced at each valine position in the native protein [1]: about 24%

N[C@@H](Cc1ccc(O)cc1)C(=O)O [L-tyrosine]
Km higher than that for O-methyl-L-tyrosine (mutant TyrRS (LWJ16)): approximately 13 fold | kcat down relative to that for O-methyl-L-tyrosine (mutant TyrRS (LWJ16)): 8 fold | Kcat (mutant TyrRS (LWJ16)): 1.8 ± 0.2 10 − 3 s − 1 | Km (mutant TyrRS (LWJ16)): 5.83 mM

COc1ccc(C[C@H](N)C(=O)O)cc1 [O-methyl-L-tyrosine]
kcat/Km higher than that of tyrosine (mutant TyrRS (LWJ16)): about 100 fold | Kcat (mutant TyrRS (LWJ16)): 14 ± 1 10 − 3 s − 1 | Km (mutant TyrRS (LWJ16)): 0.443 mM | effect on growth rate of E. coli (E. coli): does not significantly affect the growth rate

NN1C(=O)c2ccccc2C12c1ccc(O)cc1Oc1cc(O)ccc12 [fluorescein hydrazide]
cell permeability [2]: cell-permeable | lysis of cells [2]: does not lyse cells

N[C@@H](Cc1ccc(F)cc1)C(=O)O [p-F-Phe, p-fluorophenylalanine]
amino acid found at the Phe codon positions [3]: 7% | translation of the mutagenesis site with the amino acid ([3]; excess of p-F-Phe in growth media): 64-75%

SjGST: Schistosoma Japonica glutathione-S-transferase with pBpa, presumably at Phe52 in the dimer interface
SjGST crosslinked to covalent homodimer (SjGST homodimer): Approximately 70%

B1: mutant TyrRS (LWJ16) (protein, listed as Methanococcus jannaschii)
chain: MDEFEMIKRNTSEIISEEELREVLKKDEKSAQIGFEPSGKIHLGHYLQIKKMIDLQNAGFDIIILLADLHAYLNQKGELDEIRKIGDYNKKVFEAMGLKAKYVYGSTFQLDKDYTLNVYRLALKTTLKRARRSMELIAREDENPKVAEVIYPIMQVNAIHYPGVDVAVGGMEQRKIHMLARELLPKKVVCIHNPVLTGLDGEGKMSSSKGNFIAVDDSPEEIRAKIKKAYCPAGVVEGNPIMEIAKYFLEYPLTIKRPEKFGGDLTVSSYEELESLFKNKELHPMDLKNAVAEELIKILEPIRKRL
chloramphenicol concentration at which cells were not viable ([4]; absence of O-methyl-L-tyrosine): 15 micrograms/mL | chloramphenicol concentration at which cells were able to grow ([4]; presence of 1 mM O-methyl-L-tyrosine): 125 micrograms/mL

B2: OAT-RS (1): O-allyl-tyrosine synthetase clone from positive selection and negative FACS screening (protein, listed as Methanococcus jannaschii)
chain: B1 chain with Q32S, A158T, I159Y, P162A, S268N
fluorescence enhancement higher than for OAT-RS clone from positive/negative selection using barnase [5]: about 6 fold
